Experiments:
Hepatocyte = experiment: Inhibition of glucose output in glucagon challenged rat hepatocytes; type: functional, cell-based
[1] = biological target: T1, Glycogen phosphorylase, liver form (Homo sapiens, UniProt P06737); experiment: Inhibition of recombinant human liver GPa by multienzyme coupled assay
T1 sequence (P06737 whole entry): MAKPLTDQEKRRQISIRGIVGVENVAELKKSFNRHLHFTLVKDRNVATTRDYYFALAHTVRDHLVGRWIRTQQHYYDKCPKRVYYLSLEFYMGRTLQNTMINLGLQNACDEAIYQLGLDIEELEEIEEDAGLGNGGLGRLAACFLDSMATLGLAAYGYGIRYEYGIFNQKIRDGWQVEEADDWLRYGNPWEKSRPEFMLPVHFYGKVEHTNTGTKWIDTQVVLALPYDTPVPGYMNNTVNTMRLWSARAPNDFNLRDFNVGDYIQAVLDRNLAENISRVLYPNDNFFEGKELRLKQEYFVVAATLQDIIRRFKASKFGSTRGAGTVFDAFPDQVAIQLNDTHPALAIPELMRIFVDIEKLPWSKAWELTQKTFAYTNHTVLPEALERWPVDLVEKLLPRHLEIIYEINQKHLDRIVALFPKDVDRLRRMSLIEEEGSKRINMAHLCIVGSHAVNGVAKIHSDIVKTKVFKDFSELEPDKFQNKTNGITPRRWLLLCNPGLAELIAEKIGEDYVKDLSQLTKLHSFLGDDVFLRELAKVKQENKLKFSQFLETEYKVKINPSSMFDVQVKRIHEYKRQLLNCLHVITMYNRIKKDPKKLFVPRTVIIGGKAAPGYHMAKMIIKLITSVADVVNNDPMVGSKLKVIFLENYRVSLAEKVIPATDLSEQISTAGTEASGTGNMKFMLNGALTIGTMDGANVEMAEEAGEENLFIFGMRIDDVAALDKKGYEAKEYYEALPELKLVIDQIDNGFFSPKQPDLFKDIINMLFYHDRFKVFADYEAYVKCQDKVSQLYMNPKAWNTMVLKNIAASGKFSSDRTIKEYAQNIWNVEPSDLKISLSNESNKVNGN

[2] = biological target: T2, Glycogen phosphorylase, liver form (Homo sapiens) (UniProt P06737); experiment: Inhibition of recombinant human liver GPa by multienzyme coupled assay at 100 uM
T2 sequence (whole entry): T1 sequence (P06737 whole entry)

[3] = biological target: T2, Glycogen phosphorylase, liver form (Homo sapiens); experiment: Inhibition of recombinant human liver GPa by multienzyme coupled assay at 10 uM

For CN(C)C(=O)[C@H](Cc1ccccc1)NC(=O)c1cc2sc(Cl)c(Cl)c2[nH]1, the IC50 (Hepatocyte) was 1000 nM and the IC50 [1] was 5 nM.
Work on CN(C)C(=O)[C@H](Cc1ccccc1)NC(=O)c1cc2sccc2[nH]1 yielded an inhibition [2] of 35%.
Work on O=C(N[C@@H]1Cc2ccc(Cl)cc2[C@H]1O)c1cc2sc(Cl)c(Cl)c2[nH]1 yielded an IC50 [1] of 90 nM.
Work on O=C(NC1Cc2ccccc2C1)c1cc2cc(Cl)sc2[nH]1 yielded an IC50 [1] of 806 nM.
For CN(C)C(=O)[C@H](Cc1ccccc1)NC(=O)c1cc2cc(Br)sc2[nH]1, the IC50 (Hepatocyte) was 1600 nM and the IC50 [1] was 31 nM.
In the case of CNC(=O)[C@H](Cc1ccccc1)NC(=O)c1cc2scc(Cl)c2[nH]1, the IC50 [1] is reported as 390 nM.
With O=C(NC1Cc2ccccc2NC1=O)c1cc2cc(Cl)ccc2[nH]1 (configuration not stated) the IC50 (Hepatocyte) was 7000 nM and the IC50 [1] was 86 nM.
Molecule CN(C)C(=O)[C@H](Cc1ccccc1)NC(=O)c1cc2cc(Cl)sc2[nH]1 has an IC50 (Hepatocyte) of 1400 nM and an IC50 [1] of 17 nM.
O=C(N[C@@H]1Cc2ccccc2[C@H]1O)c1cc2sc(Cl)c(Cl)c2[nH]1 showed an IC50 (Hepatocyte) of 1500 nM and an IC50 [1] of 9 nM.
Work on O=C(N[C@@H]1Cc2ccc(F)cc2[C@H]1O)c1cc2sc(Cl)c(Cl)c2[nH]1 yielded an IC50 (Hepatocyte) of 1300 nM and an IC50 [1] of 49 nM.
CN(C)C(=O)[C@H](Cc1ccccc1)NC(=O)c1cc2ccsc2[nH]1 gave an IC50 [1] of 2310 nM.
CN(C)C(=O)[C@H](Cc1ccccc1)NC(=O)c1cc2cc(Cl)ccc2[nH]1 was tested, and the IC50 (Hepatocyte) was 2600 nM and the IC50 [1] was 51 nM.
With O=C(N[C@@H]1Cc2ccccc2[C@H]1O)c1cc2cc(Cl)sc2[nH]1 the IC50 (Hepatocyte) was 3600 nM.
In the case of CNC(=O)[C@H](Cc1ccccc1)NC(=O)c1cc2sc(Cl)cc2[nH]1, the IC50 [1] is reported as 577 nM.
For CN(C)C(=O)[C@H](Cc1ccccc1)NC(=O)c1cc2sc(Br)c(Br)c2n1C, the IC50 (Hepatocyte) was 1100 nM and the IC50 [1] was > 10000 nM.
With O=C(NC1Cc2ccccc2C1)c1cc2sc(Cl)c(Cl)c2[nH]1 the IC50 [1] was 197 nM.
In the case of CN(C)C(=O)[C@H](Cc1ccccc1)NC(=O)c1cc2sc(Br)c(Br)c2[nH]1, the IC50 [1] is reported as 23 nM.
CN(C)C(=O)[C@H](Cc1ccccc1)N(C)C(=O)c1cc2sc(Br)c(Br)c2[nH]1 was tested, and the IC50 [1] was > 10000 nM.
CN(C)C(=O)[C@H](Cc1ccccc1)NC(=O)c1cc2c(Br)c(Br)sc2[nH]1 was tested, and the inhibition [3] was 20%.
